Assay results reported in ChEMBL document CHEMBL3856276, “Design, Synthesis, and Biological Evaluation of Novel Tetrahydroprotoberberine Derivatives (THPBs) as Selective α1A-Adrenoceptor Antagonists” (J Med Chem, 2016).

Tests used:
[1] = biological target: T1, Alpha-1A adrenergic receptor (Homo sapiens) (UniProt P35348); experiment: Antagonist activity at human full-length N-terminal SNAP-tagged alpha1A adrenoceptor expressed in HEK293 cells assessed as inhibition of agonist-induced calcium mobilization at 10 uM preincubated for 10 mins followed by agonist addition by fluo-4 AM dye-based assay relative to control; type: functional, cell-based
T1 sequence (whole entry): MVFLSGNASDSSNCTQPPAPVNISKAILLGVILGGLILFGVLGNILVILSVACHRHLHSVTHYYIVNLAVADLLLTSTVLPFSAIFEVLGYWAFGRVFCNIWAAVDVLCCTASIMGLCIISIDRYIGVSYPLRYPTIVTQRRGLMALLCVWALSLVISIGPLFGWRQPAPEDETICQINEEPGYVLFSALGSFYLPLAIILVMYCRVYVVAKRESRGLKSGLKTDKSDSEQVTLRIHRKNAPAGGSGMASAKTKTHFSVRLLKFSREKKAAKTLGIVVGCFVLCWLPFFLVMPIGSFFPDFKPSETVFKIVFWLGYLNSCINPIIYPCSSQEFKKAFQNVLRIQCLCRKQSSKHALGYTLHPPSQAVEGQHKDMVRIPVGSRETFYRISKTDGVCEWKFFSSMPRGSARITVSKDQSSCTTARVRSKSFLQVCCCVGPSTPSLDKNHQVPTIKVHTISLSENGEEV

[2] = species: Homo sapiens; experiment: Selectivity ratio of IC50 for human full-length N-terminal SNAP-tagged alpha1B adrenoceptor to IC50 for human full-length N-terminal SNAP-tagged alpha1A adrenoceptor
[3] = biological target: T2, Alpha-1A adrenergic receptor (Rattus norvegicus, UniProt P43140); experiment: Antagonist activity at alpha1A adrenoceptor in Sprague-Dawley rat urethra assessed as inhibition of norepinephrine-induced smooth muscle contraction after 20 mins
T2 sequence (P43140 whole entry): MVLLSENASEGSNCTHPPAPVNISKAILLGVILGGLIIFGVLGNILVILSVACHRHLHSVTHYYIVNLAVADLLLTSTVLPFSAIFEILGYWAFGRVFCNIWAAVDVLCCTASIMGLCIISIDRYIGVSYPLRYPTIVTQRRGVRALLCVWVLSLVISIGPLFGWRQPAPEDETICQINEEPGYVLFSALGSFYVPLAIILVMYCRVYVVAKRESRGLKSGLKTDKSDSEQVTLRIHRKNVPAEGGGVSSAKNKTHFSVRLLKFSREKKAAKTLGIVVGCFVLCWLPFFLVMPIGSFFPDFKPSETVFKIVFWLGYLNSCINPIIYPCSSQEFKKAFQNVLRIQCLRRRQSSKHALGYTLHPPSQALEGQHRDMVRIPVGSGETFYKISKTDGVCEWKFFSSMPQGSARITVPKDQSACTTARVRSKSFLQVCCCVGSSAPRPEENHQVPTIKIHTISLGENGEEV

[4] = tested on: Rattus norvegicus; experiment: Inhibition of micturition frequency in po dosed Sprague-Dawley rat benign prostatic hyperplasia model administered 20 mins followed by distilled watering loading measured for 2 hrs; type: functional; conditions: read-out: MED
[5] = tested on: Mus musculus; experiment: Acute toxicity in Kunming mouse assessed as mortality at 500 mg/kg, po administered as single dose measured over 7 days; type: organism-based; conditions: in vivo, 168 h
[6] = tested on: Mus musculus; experiment: Acute toxicity in Kunming mouse assessed as effect on fur colour at 500 mg/kg, po administered as single dose measured over 7 days; type: organism-based; conditions: in vivo, 168 h
[7] = tested on: Mus musculus; experiment: Acute toxicity in Kunming mouse assessed as effect on behavior at 500 mg/kg, po administered as single dose measured over 7 days; type: organism-based; conditions: in vivo, 168 h
[8] = Tmax in rat at 10 mg/kg, iv; type: ADME, organism-based; conditions: in vivo
[9] = AUC (0 to infinity) in rat at 20 mg/kg, ig via oral gavage; type: ADME, organism-based; conditions: in vivo
[10] = AUC (0 to infinity) in rat at 10 mg/kg, iv; type: ADME, organism-based; design: dose 10 mg/kg, time infinity, route intravenous; conditions: in vivo
[11] = Mean residence time in rat at 20 mg/kg, ig via oral gavage; type: ADME, organism-based; conditions: in vivo
[12] = Mean residence time in rat at 10 mg/kg, iv; type: ADME, organism-based; conditions: in vivo
[13] = Half life in rat at 20 mg/kg, ig via oral gavage; type: ADME, organism-based; conditions: in vivo
[14] = Oral bioavailability in rat at 20 mg/kg, ig via gavage; type: ADME, organism-based; conditions: in vivo

Compound: COc1ccc2[nH]c3c(c2c1)C[C@H]1c2cc4c(cc2CCN1C3)OCO4
- inhibition [1]: 100%
- Ratio IC50 [2]: > 781
- IC50 [3]: 0.5 nM
- minimal effective dose [4]: 3 mg/kg
- Activity [5]: Non-Toxic
- Activity [6]: Non-Toxic
- Activity [7]: Non-Toxic
- Tmax [8]: 0.25 h
- AUC(0-inf) [9]: 2280 ng·h/mL
- AUC(0-inf) [10]: 1880 ng·h/mL
- MRT [11]: 2.52 h
- MRT [12]: 1.79 h
- half-life [13]: 1.18 h
- bioavailability [14]: 60.9%
